How the values were obtained:
[1] = test system: wild-type cotyledons in Arabidopsis
Experimental: A salt tolerance screen is performed to identify and isolate gene(s) that confer salt (NaCl) tolerance in Arabidopsis.
A primary screen is conducted with T1 plants, using a germination assay. T1 seed is plated evenly in media supplemented with 250 mM NaCl. For negative and positive controls, wild type (Col-O) seed is plated in plates with and without, respectively, the supplemental NaCl. Plates are incubated for two days at 4° C., then transferred to a growth room and incubated an additional 7 to 14 days.
Salt tolerant germination is classified in five stages: 1) imbibation, emergence of radicle; 2) expansion and greening of cotyledons; 3) elongation of the hypocotyl; 4) elongation of the root and formation of root hairs; 5) development of true leaves.

[2] = test system: wild type (Col-0) Arabidopsis; assay: Copper tolerance germination assay; type: in vivo
Experimental: A screen for copper tolerance was developed in order to identify and isolate gene(s) whose altered expression confers copper tolerance and allows normal plant growth and development in the presence of an inhibitory level of copper. It has been experimentally determined that the lowest completely inhibitory concentration (LCI) of copper is 160 μM for hypocotyl and cotyledon expansion and the development of true leaves in wild type (Col-0) Arabidopsis.
For the primary screen, pooled T2 lines are plated on media supplemented with 160 μM CuSO4. Controls include wild type (Col-0 cand Shadara) plants germinating on plates with no copper and copper at the Col-0 LCI for germination. Plates are incubated 3 days at 4° C., then transferred to the growth room and incubated an additional 10 days.
Copper sensitivity is evaluated with germination assays, which are performed as described above for salt resistance screens.

Structure (SMILES)	concentration that completely abolishes expansion and green pigmentation of cotyledons [1]	concentration at which negative gravitropism of the hypocotyl is completely inhibited [2] [µM]	concentration at which root elongation is inhibited [2] [µM]	lowest completely inhibitory concentration (LCI) ([2]; hypocotyl and cotyledon expansion and development of true leaves) [µM]
[Cl-].[Na+] [NaCl]	greater than 250 mM			
O=S(=O)([O-])[O-].[Cu+2] [copper, CuSO4]		50	100	160

From patent publication US7879611B2, “System for functional gene discovery in plants” (Agrigenetics Inc, priority 2000, dated 2011)
